Source: US20220187282A1, “CARDIOMYOCYTE PROLIFERATION” (The Council of the Queensland Institute of Medical Research, priority 2019, published 2022)
Where two headings read alike, the source gives them in different places.

Assays:
Type in all cases: biochemical
[1] = biological target: kinases (Homo sapiens, UniProt O00444); conditions: PLK4 FRET-Lantha SP; Test Conc(μM) 1
[2] = biological target: kinases (Homo sapiens, UniProt O00750); conditions: PIK3C2B FRET-Adapta SP; Test Conc(μM):ATP Conc(μM) 1:10
[3] = biological target: kinases (Homo sapiens, UniProt O43293); conditions: DAPK3 (ZIPK) FRET-Z-Lyte SP; Test Conc(μM):ATP Conc(μM) 1:5
kinases (Homo sapiens, UniProt O43293), sequence (O43293 whole entry): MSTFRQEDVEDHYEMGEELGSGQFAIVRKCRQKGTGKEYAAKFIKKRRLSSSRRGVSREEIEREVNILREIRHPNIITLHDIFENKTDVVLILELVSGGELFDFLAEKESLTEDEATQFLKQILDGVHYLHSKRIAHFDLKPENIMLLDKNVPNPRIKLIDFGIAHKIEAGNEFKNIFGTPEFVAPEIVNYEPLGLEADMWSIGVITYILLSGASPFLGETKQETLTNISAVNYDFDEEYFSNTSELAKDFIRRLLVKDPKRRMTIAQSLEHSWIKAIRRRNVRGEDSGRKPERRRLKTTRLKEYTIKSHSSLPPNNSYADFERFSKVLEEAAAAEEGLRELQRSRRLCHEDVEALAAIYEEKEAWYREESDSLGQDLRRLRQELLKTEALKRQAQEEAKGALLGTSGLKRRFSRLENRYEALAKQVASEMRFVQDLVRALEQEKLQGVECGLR

[4] = biological target: kinases (Homo sapiens, UniProt P05771); conditions: PRKCB1 (PKC beta I) Z-Lyte SP; Test Conc(μM):ATP Conc(μM) 1:200
[5] = biological target: kinases (Homo sapiens, UniProt P06239); conditions: LCK FRET-Z-Lyte SP; Test Conc(μM):ATP Conc(μM) 1:50
[6] = biological target: kinases (Homo sapiens, UniProt P06241)
kinases (Homo sapiens, UniProt P06241), sequence (P06241 whole entry): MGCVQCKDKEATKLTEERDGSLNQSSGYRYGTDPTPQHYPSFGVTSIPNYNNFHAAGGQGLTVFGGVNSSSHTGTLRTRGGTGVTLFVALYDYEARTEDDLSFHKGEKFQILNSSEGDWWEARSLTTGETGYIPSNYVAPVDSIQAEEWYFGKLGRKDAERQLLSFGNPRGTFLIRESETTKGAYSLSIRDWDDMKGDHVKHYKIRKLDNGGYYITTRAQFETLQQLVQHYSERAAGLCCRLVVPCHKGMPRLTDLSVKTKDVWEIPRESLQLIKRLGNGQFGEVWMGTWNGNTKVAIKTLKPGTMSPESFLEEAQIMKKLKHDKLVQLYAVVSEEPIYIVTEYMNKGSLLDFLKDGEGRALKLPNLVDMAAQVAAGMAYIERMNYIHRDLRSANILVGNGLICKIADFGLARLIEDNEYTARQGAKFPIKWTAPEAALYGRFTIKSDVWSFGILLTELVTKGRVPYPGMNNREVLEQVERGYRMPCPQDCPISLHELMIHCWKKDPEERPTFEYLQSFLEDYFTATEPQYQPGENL

[7] = biological target: kinases (Homo sapiens, UniProt P12931); conditions: SRC Hu Phos FRET-Z-Lyte SP; Test Conc(μM):ATP Conc(μM) 1:50
kinases (Homo sapiens, UniProt P12931), sequence (P12931 whole entry): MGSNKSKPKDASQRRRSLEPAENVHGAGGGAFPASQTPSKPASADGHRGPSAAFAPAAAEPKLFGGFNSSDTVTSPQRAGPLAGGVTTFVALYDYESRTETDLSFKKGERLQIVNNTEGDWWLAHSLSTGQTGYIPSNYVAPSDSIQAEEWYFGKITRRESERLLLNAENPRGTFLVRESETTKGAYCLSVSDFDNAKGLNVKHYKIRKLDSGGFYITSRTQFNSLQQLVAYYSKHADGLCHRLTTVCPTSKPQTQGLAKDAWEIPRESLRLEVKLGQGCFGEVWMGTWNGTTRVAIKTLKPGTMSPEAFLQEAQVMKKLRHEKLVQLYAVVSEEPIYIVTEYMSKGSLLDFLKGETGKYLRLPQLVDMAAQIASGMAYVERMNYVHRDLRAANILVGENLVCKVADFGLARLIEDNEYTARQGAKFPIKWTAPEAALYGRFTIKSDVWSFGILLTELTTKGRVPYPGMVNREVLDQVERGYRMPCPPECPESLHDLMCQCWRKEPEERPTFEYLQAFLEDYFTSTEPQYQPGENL

[8] = biological target: kinases (Homo sapiens, UniProt P22455); conditions: FGFR4 *Mn* FRET-Z-Lyte SP; Test Conc(μM):ATP Conc(μM) 1:150
[9] = biological target: kinases (Homo sapiens, UniProt P22612); conditions: PRKACG FRET-Lantha SP; Test Conc(μM) 1
kinases (Homo sapiens, UniProt P22612), sequence (P22612 whole entry): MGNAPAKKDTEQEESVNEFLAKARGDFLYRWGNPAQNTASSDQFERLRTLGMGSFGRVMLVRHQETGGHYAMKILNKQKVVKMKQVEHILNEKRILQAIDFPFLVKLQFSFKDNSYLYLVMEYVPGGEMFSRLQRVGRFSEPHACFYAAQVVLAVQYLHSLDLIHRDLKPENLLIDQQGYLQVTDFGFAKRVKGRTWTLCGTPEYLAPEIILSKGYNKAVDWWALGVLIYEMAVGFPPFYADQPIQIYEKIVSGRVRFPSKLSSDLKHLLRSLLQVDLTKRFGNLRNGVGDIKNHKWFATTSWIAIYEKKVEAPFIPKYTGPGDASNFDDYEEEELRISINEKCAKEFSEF

[10] = biological target: kinases (Homo sapiens, UniProt P24941)
[11] = biological target: kinases (Homo sapiens, UniProt P27037); conditions: ACVR2A FRET-Lantha SP; Test Conc(μM) 1
[12] = biological target: kinases (Homo sapiens, UniProt P27361); conditions: MAPK3 (ERK1) FRET-Z-Lyte SP; Test Conc(μM):ATP Conc(μM) 1:50
[13] = biological target: kinases (Homo sapiens, UniProt P29322); conditions: EPHA8 FRET-Z-Lyte SP; Test Conc(μM):ATP Conc(μM) 1:100
[14] = biological target: kinases (Homo sapiens, UniProt P31749); conditions: AKT1 (PKB alpha) Z-Lyte SP; Test Conc(μM):ATP Conc(μM) 1:75
[15] = biological target: kinases (Homo sapiens, UniProt P53779)
kinases (Homo sapiens, UniProt P53779), sequence (P53779 whole entry): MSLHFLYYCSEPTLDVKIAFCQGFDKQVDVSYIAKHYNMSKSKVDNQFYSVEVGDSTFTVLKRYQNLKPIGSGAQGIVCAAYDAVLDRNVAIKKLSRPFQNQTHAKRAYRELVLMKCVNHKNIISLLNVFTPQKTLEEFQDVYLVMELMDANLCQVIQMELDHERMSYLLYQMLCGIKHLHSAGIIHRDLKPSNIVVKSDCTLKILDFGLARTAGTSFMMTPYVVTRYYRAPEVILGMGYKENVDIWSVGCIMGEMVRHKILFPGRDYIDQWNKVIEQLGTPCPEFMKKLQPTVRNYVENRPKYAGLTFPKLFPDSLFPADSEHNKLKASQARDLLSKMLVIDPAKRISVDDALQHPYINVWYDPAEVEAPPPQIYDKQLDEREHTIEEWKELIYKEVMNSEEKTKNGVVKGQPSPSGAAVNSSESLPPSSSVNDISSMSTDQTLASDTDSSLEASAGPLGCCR

[16] = biological target: kinases (Homo sapiens, UniProt Q06187); conditions: BTK FRET-Z-Lyte SP; Test Conc(μM):ATP Conc(μM) 1:25
[17] = biological target: kinases (Homo sapiens, UniProt Q13237); conditions: PRKG2 (PKG2) FRET-Z-Lyte SP; Test Conc(μM):ATP Conc(μM) 1:150
[18] = biological target: kinases (Homo sapiens, UniProt Q13470); conditions: TNK1 FRET-Z-Lyte SP; Test Conc(μM):ATP Conc(μM) 1:200
[19] = biological target: kinases (Homo sapiens, UniProt Q15835); conditions: GRK1 FRET-Lantha SP; Test Conc(μM) 1
kinases (Homo sapiens, UniProt Q15835), sequence (Q15835 whole entry): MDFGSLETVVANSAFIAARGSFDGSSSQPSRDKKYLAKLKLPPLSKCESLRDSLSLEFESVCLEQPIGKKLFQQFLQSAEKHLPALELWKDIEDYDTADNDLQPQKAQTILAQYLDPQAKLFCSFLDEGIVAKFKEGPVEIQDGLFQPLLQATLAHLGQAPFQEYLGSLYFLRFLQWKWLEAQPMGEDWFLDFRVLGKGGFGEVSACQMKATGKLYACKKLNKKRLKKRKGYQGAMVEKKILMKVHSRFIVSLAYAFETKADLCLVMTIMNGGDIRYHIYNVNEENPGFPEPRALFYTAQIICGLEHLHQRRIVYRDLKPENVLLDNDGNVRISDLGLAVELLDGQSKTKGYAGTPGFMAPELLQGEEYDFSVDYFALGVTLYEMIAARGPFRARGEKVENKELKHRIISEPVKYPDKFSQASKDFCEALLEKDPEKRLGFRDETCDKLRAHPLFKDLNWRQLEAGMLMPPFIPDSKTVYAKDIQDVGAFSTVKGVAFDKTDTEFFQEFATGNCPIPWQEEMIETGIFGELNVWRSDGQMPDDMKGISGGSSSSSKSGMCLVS

[20] = biological target: kinases (Homo sapiens, UniProt Q16513); conditions: PKN2 (PRK2) FRET-lantha SP; Test Conc(μM) 1
[21] = biological target: kinases (Homo sapiens, UniProt Q8NEV4); conditions: MYO3A (MYO3 alpha) Lantha SP; Test Conc(μM) 1
kinases (Homo sapiens, UniProt Q8NEV4), sequence (Q8NEV4 whole entry): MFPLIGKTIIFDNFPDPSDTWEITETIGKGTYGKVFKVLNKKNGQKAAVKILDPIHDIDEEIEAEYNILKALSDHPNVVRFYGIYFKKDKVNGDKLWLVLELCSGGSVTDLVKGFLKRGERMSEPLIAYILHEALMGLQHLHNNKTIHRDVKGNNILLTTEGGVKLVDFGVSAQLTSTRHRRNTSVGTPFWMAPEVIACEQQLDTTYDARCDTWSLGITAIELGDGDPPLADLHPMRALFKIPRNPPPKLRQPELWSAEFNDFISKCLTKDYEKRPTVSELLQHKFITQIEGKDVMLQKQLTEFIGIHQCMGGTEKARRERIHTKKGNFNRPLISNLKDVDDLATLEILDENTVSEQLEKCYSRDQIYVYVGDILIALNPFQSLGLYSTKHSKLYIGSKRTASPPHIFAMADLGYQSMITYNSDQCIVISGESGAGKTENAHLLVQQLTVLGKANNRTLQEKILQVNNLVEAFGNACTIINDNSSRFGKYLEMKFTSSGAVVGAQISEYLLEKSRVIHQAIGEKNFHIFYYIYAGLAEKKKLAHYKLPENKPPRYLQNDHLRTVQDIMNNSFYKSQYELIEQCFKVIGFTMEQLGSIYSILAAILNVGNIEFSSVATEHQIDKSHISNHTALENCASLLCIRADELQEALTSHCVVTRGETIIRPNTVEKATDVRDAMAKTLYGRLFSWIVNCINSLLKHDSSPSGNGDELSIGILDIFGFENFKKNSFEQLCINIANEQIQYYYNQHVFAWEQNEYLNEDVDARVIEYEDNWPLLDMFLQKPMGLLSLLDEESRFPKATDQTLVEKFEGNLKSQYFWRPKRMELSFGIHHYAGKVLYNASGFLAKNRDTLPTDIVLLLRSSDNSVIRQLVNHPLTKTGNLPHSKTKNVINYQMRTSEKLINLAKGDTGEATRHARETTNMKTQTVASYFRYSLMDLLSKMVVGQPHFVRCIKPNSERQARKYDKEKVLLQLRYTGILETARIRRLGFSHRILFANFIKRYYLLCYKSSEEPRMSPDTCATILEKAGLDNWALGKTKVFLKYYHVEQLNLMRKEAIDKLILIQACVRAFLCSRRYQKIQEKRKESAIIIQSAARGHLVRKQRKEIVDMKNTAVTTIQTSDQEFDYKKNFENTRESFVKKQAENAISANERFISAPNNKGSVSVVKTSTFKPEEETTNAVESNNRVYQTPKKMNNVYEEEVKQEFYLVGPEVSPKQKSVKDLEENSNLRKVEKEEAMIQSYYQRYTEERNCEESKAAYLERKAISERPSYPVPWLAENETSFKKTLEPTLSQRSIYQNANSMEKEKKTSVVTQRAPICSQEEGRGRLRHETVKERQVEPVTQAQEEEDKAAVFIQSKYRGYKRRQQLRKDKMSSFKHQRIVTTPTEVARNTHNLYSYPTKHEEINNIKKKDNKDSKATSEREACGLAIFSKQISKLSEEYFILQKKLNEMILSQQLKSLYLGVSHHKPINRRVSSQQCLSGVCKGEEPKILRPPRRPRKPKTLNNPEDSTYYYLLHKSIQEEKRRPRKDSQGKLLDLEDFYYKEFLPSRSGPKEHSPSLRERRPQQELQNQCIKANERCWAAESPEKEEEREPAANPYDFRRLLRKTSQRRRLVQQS

[22] = biological target: kinases (Homo sapiens, UniProt Q8WTQ7); conditions: GRK7 FRET-Z-Lyte SP; Test Conc(μM):ATP Conc(μM) 1:10
[23] = biological target: kinases (Homo sapiens, UniProt Q92918); conditions: MAP4K1 (HPK1) FRET-Lantha SP; Test Conc(μM) 1
[24] = biological target: kinases (Homo sapiens, UniProt Q96GX5); conditions: MASTL FRET-Lantha SP; Test Conc(μM) 1
[25] = biological target: kinases (Homo sapiens, UniProt Q96SB4); conditions: SRPK1 FRET-Z-Lyte SP; Test Conc(μM):ATP Conc(μM) 1:25
[26] = biological target: kinases (Homo sapiens, UniProt Q9HCP0); conditions: CSNK1G1 (CK1gamma1) Z-Lyte SP; Test Conc(μM):ATP Conc(μM) 1:5
[27] = biological target: kinases (Homo sapiens, UniProt Q9NY57); conditions: STK32B (YANK2) FRET-Lantha SP; Test Conc(μM) 1
kinases (Homo sapiens, UniProt Q9NY57), sequence (Q9NY57 whole entry): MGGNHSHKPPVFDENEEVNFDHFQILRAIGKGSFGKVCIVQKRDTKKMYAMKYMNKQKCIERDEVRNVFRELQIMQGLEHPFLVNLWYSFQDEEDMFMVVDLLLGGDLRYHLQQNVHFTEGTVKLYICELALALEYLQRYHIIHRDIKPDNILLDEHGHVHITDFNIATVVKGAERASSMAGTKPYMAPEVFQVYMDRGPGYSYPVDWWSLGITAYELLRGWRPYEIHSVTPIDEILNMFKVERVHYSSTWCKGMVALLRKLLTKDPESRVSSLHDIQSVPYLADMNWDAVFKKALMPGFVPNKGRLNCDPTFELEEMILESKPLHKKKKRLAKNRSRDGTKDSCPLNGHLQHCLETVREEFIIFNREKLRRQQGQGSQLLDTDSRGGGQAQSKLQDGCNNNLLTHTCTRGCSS

[28] = biological target: kinases (Homo sapiens, UniProt Q9P286); conditions: PAK7 (KIAA1264) FRET-Z-Lyte SP; Test Conc(μM):ATP Conc(μM) 1:5
[29] = FYN A FRET-Lantha SP, Test Conc(μM) 1
[30] = FYN FRET-Z-Lyte SP, Test Conc(μM):ATP Conc(μM) 1:75
[31] = CDK2/Cyclin E1 FRET-Lantha SP, Test Conc(μM) 1
[32] = CDK2/Cyclin O FRET-Lantha SP, Test Conc(μM) 1
[33] = CDK2/cyclin A1 FRET-Lantha SP, Test Conc(μM) 1
[34] = CDK2/cyclin A FRET-Z-Lyte SP, Test Conc(μM):ATP Conc(μM) 1:25
[35] = MAPK10 (JNK3) FRET-Lantha SP, Test Conc(μM) 1
[36] = MAPK10 (JNK3)Cascade Z-Lyte SP, Test Conc(μM):ATP Conc(μM) 1:100

In the case of Cc1ccc(NC(=O)c2ccnc(N3CCOCC3)c2)cc1Nc1ccnc(N2CC(C)OC(C)C2)n1 (stereo not drawn) [compound 3], the “Mean Inhib (%)” value [1] was 0.2%, the “Mean Inhib (%)” value [2] was 3.7% and the “Mean Inhib (%)” value [3] was 3.3%. For the same compound, the “Mean Inhib (%)” value [4] was 27.7%, the “Mean Inhib (%)” value [5] was −4.1% and the “Mean Inhib (%)” value [6, 29] was 4.8%. For the same compound, the “Mean Inhib (%)” value [6, 30] was 5.1%, the “Mean Inhib (%)” value [7] was 14.3% and the “Mean Inhib (%)” value [8] was 14.8%. The “Mean Inhib (%)” value [9] was 0.7%, the “Mean Inhib (%)” value [10, 31] was 13.8% and the “Mean Inhib (%)” value [10, 32] was 2.7%. For the same compound, the “Mean Inhib (%)” value [10, 33] was −1.8%, the “Mean Inhib (%)” value [10, 34] was 6.2% and the “Mean Inhib (%)” value [11] was 3.8%. For the same compound, the “Mean Inhib (%)” value [12] was 5.1%, the “Mean Inhib (%)” value [13] was 8.6% and the “Mean Inhib (%)” value [14] was 5.2%. For the same compound, the “Mean Inhib (%)” value [15, 35] was −0.2%, the “Mean Inhib (%)” value [15, 36] was 10.6% and the “Mean Inhib (%)” value [16] was 6.7%. The “Mean Inhib (%)” value [17] was 2.4%, the “Mean Inhib (%)” value [18] was −8.8% and the “Mean Inhib (%)” value [19] was −3.1%. The “Mean Inhib (%)” value [20] was −2.6%, the “Mean Inhib (%)” value [21] was 10.8% and the “Mean Inhib (%)” value [22] was 4.6%. The “Mean Inhib (%)” value [23] was −1.6%, the “Mean Inhib (%)” value [24] was 2.3% and the “Mean Inhib (%)” value [25] was 7.6%. The “Mean Inhib (%)” value [26] was 5.2%, the “Mean Inhib (%)” value [27] was −1.3% and the “Mean Inhib (%)” value [28] was 3.9%.
In the case of Cc1cc(Oc2ccnc(Nc3ccc(S(N)(=O)=O)cc3)c2)c(-c2ccccn2)nc1C [compound 65], the “Mean Inhib (%)” value [1] was 6.1%, the “Mean Inhib (%)” value [2] was −0.9% and the “Mean Inhib (%)” value [3] was −11.8%. The “Mean Inhib (%)” value [4] was −7.3%, the “Mean Inhib (%)” value [5] was 39.7% and the “Mean Inhib (%)” value [6, 29] was 27.5%. For the same compound, the “Mean Inhib (%)” value [6, 30] was 43.1%, the “Mean Inhib (%)” value [7] was 54.4% and the “Mean Inhib (%)” value [8] was −0.9%. For the same compound, the “Mean Inhib (%)” value [9] was 2.2%, the “Mean Inhib (%)” value [10, 31] was 10.6% and the “Mean Inhib (%)” value [10, 32] was 3.0%. For the same compound, the “Mean Inhib (%)” value [10, 33] was 4.9%, the “Mean Inhib (%)” value [10, 34] was 5.0% and the “Mean Inhib (%)” value [11] was 71.5%. For the same compound, the “Mean Inhib (%)” value [12] was 1.1%, the “Mean Inhib (%)” value [13] was 64.7% and the “Mean Inhib (%)” value [14] was −1.3%. The “Mean Inhib (%)” value [15, 35] was 5.5%, the “Mean Inhib (%)” value [15, 36] was 1.1% and the “Mean Inhib (%)” value [16] was 29.9%. The “Mean Inhib (%)” value [17] was 0.2%, the “Mean Inhib (%)” value [18] was −4.5% and the “Mean Inhib (%)” value [19] was 3.7%. The “Mean Inhib (%)” value [20] was 5.1%, the “Mean Inhib (%)” value [21] was 1.6% and the “Mean Inhib (%)” value [22] was 8.3%. The “Mean Inhib (%)” value [23] was 11.3%, the “Mean Inhib (%)” value [24] was 13.5% and the “Mean Inhib (%)” value [25] was 2.9%. The “Mean Inhib (%)” value [26] was −1.9%, the “Mean Inhib (%)” value [27] was 2.1% and the “Mean Inhib (%)” value [28] was 4.7%.
